Source: US6670391B2, “Benzopyran derivative and antiallergic agent” (Dainippon Ink and Chemicals, Inc., priority 2001, dated 2003)
Read-outs that look alike come from different tables or passages of the source.

Tested on: male Hartley guinea pigs actively sensitized with egg-white albumin
Assay: Antiallergic Test due to Antigen-Induced Immediate Type Airway Reaction and Delayed Type Airway Reaction
Type: in vivo
Conditions: Cavia porcellus, po, 10 mg/kg orally once one hour before induction (prednisolone 10 mg/kg orally twice, 16 hours and 2 hours before)
Method: Using an ultrasonic nebulizer (NE-U12, manufactured by OMRON Corporation), male Hartley guinea pigs (aged six weeks) were actively sensitized by consecutive 8-day inhalation of a 1 wt % physiological saline of egg-white albumin for 10 minutes a day. After one week passed since the final sensitization, an asthmatic disease state was induced by inhalation of a 2 wt % physiological saline of egg-white albumin for 5 minutes in the same manner. To inhibit the synthesis of endogenous steroid, metyrapone (10 mg/kg) was intravenously administered at 24 hours and one hour before the induction. To inhibit anaphylactic shock, pyrilamine (10 mg/kg) was intraperitoneally administered 30 minutes before inducing the asthmatic reaction.
After inducing the asthmatic reaction, the airway resistance (specific airway resistance Raw) was measured for 1 minute before inducing the asthmatic reaction, and 1 minute, 2 hours, 4 hours, 5 hours, 6 hours, 7 hours, 8 hours, and 23-24 hours after inducing the asthmatic reaction, using an airway resistance measuring apparatus (Pulmos-I, manufactured by M.I.P.S.). An average value of the airway resistance was determined, and an airway resistance increase ratio with respect to the value of the airway resistance before the induction was calculated by the following Equation 1.
Each of the test substances (10 mg/kg) listed in Table 1 was suspended in an aqueous 0.5% methyl cellulose solution, and the suspension was orally administered once one hour before inducing the asthmatic reaction. A positive control substance (prednisolone) was orally administered twice at a dosage of 10 mg/kg 16 hours and 2 hours before inducing the asthmatic reaction. The test was carried out on 8 animals per group.
According to this test procedure, a two-phase increase in airway resistance was observed immediately after inducing the asthmatic reaction and after 4-8 hours passed since inducing the asthmatic reaction. In the present invention, the former increase in airway resistance is referred to as the immediate type asthmatic reaction, while the latter increase in airway resistance is referred to as the delayed type asthmatic reaction. With respect to the evaluation of the drug, for the immediate type asthmatic reaction, the inhibition percentage with respect to the asthmatic reaction inhibiting medium administration group (referring to the group wherein a test drug is not administered after inducing the asthmatic reaction, hereinafter merely referred to as the “medium administration group”) was determined by Equation 2 using the airway resistance increase ratio after one minute gas passed since the induction as an index.
For the delayed type asthmatic reaction, the inhibition percentage with respect to the medium administration group was determined by the following Equation 3 using the area under the curve (AUC4-8) of the airway resistance increase ratio up to 4-8 hours after inducing the asthmatic reaction as an index. As an example, the relationship between the airway resistance increase ratio up to 4-8 hours after inducing the asthmatic reaction of the delayed type asthmatic reaction and time in the medium administration group, the prednisolone administration group, and the compound (216) administration group is shown in FIG. 1. As used herein, the area under the curve showing the relationship between the airway resistance increase ratio and time is (AUC4-8)
Airway resistance increase ratio (%)=(airway resistance after inducing the asthmatic airway resistance−airway resistance before inducing the asthmatic reaction)/(airway resistance before inducing the asthmatic reaction)×100
Inhibition (%)=(1−airway resistance increase ratio after one minute has passed since inducing the asthmatic reaction of the test substance administration group/airway resistance increase ratio after one minute has passed since inducing the asthmatic reaction of the medium administration group)×100 […]

[1] = 1 min, airway resistance increase ratio one minute after induction vs medium administration group, read-out: Inhibition (%) against immediate type allergy
[2] = AUC4-8 of airway resistance increase ratio 4-8 hours after induction vs medium administration group, read-out: Inhibition (%) against delayed type allergy

SMILES | inhibition in vivo at 10 mg/kg [1] [%] | inhibition in vivo at 10 mg/kg [2] [%]
CCCCCCCCCCOc1cccc2c(OCCCC)c(O)c(=O)oc12 [Comparative Compound (3), 3-hydroxy-4-butoxy-8-decyloxy-2H-1-benzopyran-2-one, reference compound] | 5.2 | 24.3
COc1ccc2c(O)c(O)c(=O)oc2c1 [Comparative Compound (1), 3,4-dihydroxy-7-methoxy-2H-1-benzopyran-2-one, reference compound] | 5.7 | 21.9
CCCCCCOc1c(O)c2ccc(OCC(=O)O)cc2oc1=O [Compound (267), 3-hexyloxy-4-hydroxy-7-hydroxycarbonylmethoxy-2H-1-benzopyran-2-one] | 14 | 62.2
CCOc1c(O)c2cc(OCCCCO)ccc2oc1=O [Compound (137), 3-ethoxy-4-hydroxy-6-(4-hydroxybutoxy)-2H-1-benzopyran-2-one] | 8.3 | 58.9
